Results on 5 compounds are retold here after PMC9030166, “Natural Phaeosphaeride A Derivatives Overcome Drug Resistance of Tumor Cells and Modulate Signaling Pathways” (Pharmaceuticals, 2022).

Holding throughout (assay type): cell-based, human
The test system of data set [1] is A549. Kind of data set: MTT cytotoxicity, A549 non-small cell lung cancer cells. The following applies: 48 h; for IC50: Homo sapiens, A549, adhesive tumor culture. From the text:
Cell cultures used in the work: adhesive cultures HBL-100 cells (cells of a normal mammary gland epithelium, immortalized by the SV40 virus and acquired tumorigenicity); MCF-7 breast cancer cells; PC-3 prostate adenocarcinoma cells; HCT-116 colorectal cancer cells; non-small cell lung cancer cells A549; human embryonic kidney cells HEK293; suspension cultures (NCI-H929 and RPMI8226 multiple myeloma cells), K562 chronic myeloid leukemia cells; THP-1 acute monocytic leukemia cells; and Jurkat acute T-cell leukemia cells. We also used several primary cultures of soft tissue sarcomas at 3–4passeges, kindly provided by T.I. Fetisov (The Ethics Committee of N.N. Blokhin NMRCO, protocol code 18-28-09095 and date of approval 28 September 2018).
(§1) Modifications of cell lines: K562/i-S9 is a clone obtained after transfection of K562 cells with the ABCB1 (MDR1) gene-encoding P-glycoprotein [36]. Cells HBL-100/Dox and K562/i-S9_Dox are cells obtained by long-term selection with increasing concentrations of doxorubicin (Sigma-Aldrich, St. Louis, MO, USA) from HBL-100 and K562/i-S9 cells, respectively. MCF-7, A594 cells, and primary cultures of soft tissue sarcomas were cultured in DMEM medium (PanEko, Russia), PC-3 and HCT-116 cells and all suspension cultures in RPMI1640 medium (PanEko, Russia) supplemented with 10% fetal bovine serum (GE Healthcare LifeSciences, USA), and gentamicin at a concentration of 40 μg/mL at 37 °C and 5% CO2.
(§2) Cells MCF-7, PC-3, A549, and HCT-116, and primary cultures of STSwere seeded in 96-well plates, 6 × 10^3 cells per well in 90 μL of culture medium. Suspension cultures were seeded at a concentration of 25 × 10^3 cells per well in 135 μL of medium. The test substances were dissolved in DMSO (Applichem, Council Bluffs, IA, USA) until a concentration of 1 × 10^−^2 M was obtained; for the subsequent dilution of the substances, a serum-free culture medium was used. The next day, for adhesive cultures, and on the same day, for suspension cultures, substances were added to the plates in a volume of 10 μL (adhesive cultures) and 15 μL (suspension cultures) per well at various concentrations; each concentration was added in 3–4 repetitions. The cells were cultured in the presence of substances for 48 h. Then, MTT reagent (PanEko, Moscow, Russia) was added to the wells at a concentration of 5 mg/mL in a volume of 20 μL per well. After 1.5–2 h, the medium with the reagent was removed, and the precipitate of the crystals of formazan was dissolved in 60 μL of DMSO. The optical density was determined using a Multiskan FC spectrophotometer (Thermo Scientific, Waltham, MA, USA) at a wavelength of 540 nm.
(§3) Based on the results of the experiments, a schedule was plotted of the dependence of the percentage of surviving cells (from control) on the concentration of the compound, and the sought concentration IC50 was calculated. The experiments were carried out in 3–4 times.

For data set [2], the system named is K562/i-S9. Kind of data set: MTT cytotoxicity, resistant K562/i-S9 cells (ABCB1 transfected). The following applies: for IC50: Homo sapiens, K562i/S9, resistant version, ABCB1 transfected, MTT, 48 h; for resistance of K562/i-S9 cells relative to K562: ratio of IC50 values, Table 4.
Description: At the next stage, the cytotoxic activity of compounds 1, 2, and 9 (Scheme 2) was investigated on several pairs of cell lines that differ in the expression of P-gp and the method by which they were obtained. K562/i-S9 cells are the result of the ABCB1 transfection into K562 cells, which increases P-gp expression, but should not seriously affect other signaling pathways that could lead to drug resistance. K562/i-S9_Dox cells were obtained from K562/i-S9 by selection with low concentrations of doxorubicin to increase P-gp expression. Subline HBL-100/Dox is a derivative of HBL-100 cells, obtained by long-term selection with increasing concentrations of doxorubicin, which led not only to an increase in P-gp expression, but also to a change in the signaling pathways in this subline. Cells of the K562/i-S9_Dox subline express the highest level of P-gp: 94.7% ± 2.3 (p < 0.0001 relative to K562, and p = 0.04 relative to K562/i-S9). In cells of the K562/i-S9 line, the expression of P-gp is 80% ± 8.2 (p < 0.0001 relative to K562). At 0.7% ± 0.5, P-gp is practically not expressed in K562 cells (Figure 1).
as §1, §2, §3

Data set [3] concerns STAT3 (pSer727). The experiment in a line: MILLIPLEX MAP 9-Plex, STAT3 active form in A431 lysates. The following applies: 10 μM; for STAT3 (pSer727) fluorescence intensity: A431 cell lysates, 1 h, M ± mx, control 70.7 ± 18.3. From the text: We used the MILLIPLEX MAP Multi-Pathway Magnetic Bead 9-Plex-Cell Signaling Multiplex Assay, which allows the simultaneous detection of nine phosphorylated proteins that are markers of the main intracellular signaling pathways (phosphorylation site is indicated in parentheses), a universal transcription factor that controls the expression of immune response genes; apoptosis and cell cycle NFκB (pS536); cAMP-dependent transcription factor (CREB (pS133); mitogen-activated kinase p38 (pT180/pY182); stress-activated protein kinase JNK (pT183/pY185); ribosomal […]; transcription factors STAT3 (pS727) and STAT5A/B (pY694/699); protein kinase B (Akt) (pS473); and kinase regulated by extracellular signals ERK1/2 (pT185/pY187).
The effect of various concentrations of PPA derivatives on the cell culture was studied using xCelligence RTCA equipment (AceaBioscience, San Diego, CA, USA). The concentration closest to the IC50 (10 μM) was chosen as the experimental concentration. The selected concentration of phaeosphaeride A derivatives allows for the assessment of the early effect of compounds on cells and compares their effectiveness. In this experiment, the signaling pathways Akt (pSer473), p70S6K (pThr412), NFkB (p65-pSer536), and CREB (pSer133) were not activated (Table 8). The stress-activated signaling pathways ERK/MAP kinase 1/2 (pThr185/pTyr187), JNK (pThr183/pTyr185), and p38 (pThr180/pTyr182) were activated for these compounds.
We used a MILLIPLEX MAP Multi-Pathway Magnetic Bead 9-Plex-Cell Signaling Multiplex Assay kit (Merck/Millipore), according to the manufacturer’s protocol. A431 cells were cultured in DMEM with 10% FBS in 24-well plates. Compounds were added to the subconfluent cells at a concentration of 10 μM in DMEM medium for 1 h. Each compound was added in 5 experimental repeats. Cell lysates were prepared with lysis buffer (Millipore) with protease inhibitors (Complete, Roche); the protein concentration in the lysates was determined by the Lowry method. In samples equalized in protein concentration, the active forms of kinase cascades were determined using a Bio-Plex 200 fluorescent analyzer (Bio-Rad).

SMILES strings stand for the structures.

What is called IC50 is the concentration at which inhibition is half-maximal. Read a low IC50 as greater potency. Consider `C=C1C2=C(C(=O)N1OC)[C@@H](N1CCCC1)[C@@](C)(O)[C@H](CCCCC)O2` [Compound 1], for which, in data set [1], the 50% inhibitory concentration (IC50) is 14 ± 0.1 µM. In data set [2], it took 2.4 ± 0.6 µM to reach half-maximal inhibition (IC50) and the “resistance of K562/i-S9 cells relative to K562” value is listed as “slightly greater sensitivity”. Besides, in data set [3], the “STAT3 (pSer727) fluorescence intensity” value is 163.0 ± 20.7 *↑ rel. units.

Regarding `C=C1C2=C(C(=O)N1OC)[C@@H](N(C)C)[C@@](C)(O)[C@H](CCCCC)O2` [Compound 2, (2S,3R,4R)-4-(dimethylamino)-3-hydroxy-6-methoxy-3-methyl-7-methylene-2-pentyl-3,4,6,7-tetrahydropyrano[2,3-c]pyrrol-5(2H)-one], the IC50 in data set [1] was 9.6 ± 2.1 µM; in data set [2], 1.6 ± 0.5 µM. Further, the “STAT3 (pSer727) fluorescence intensity” value in data set [3] is 272.3 ± 50.5 *↑ rel. units. In data set [3] (A431 cells), the “activation of transcription factor STAT3 (pSer727), in words” value is given as “slightly activated”.

In turn, `C=C1C2=C(C(=O)N1OC)[C@@H](N(CCCC)CCCC)[C@@](C)(O)[C@H](CCCCC)O2` [Compound 5, (2S,3R,4R)-4-(dibutylamino)-3-hydroxy-6-methoxy-3-methyl-7-methylene-2-pentyl-3,4,6,7-tetrahydropyrano[2,3-c]pyrrol-5(2H)-one] yielded an IC50 in data set [1] of 23.4 ± 2.3 µM. In data set [3], the “STAT3 (pSer727) fluorescence intensity” value is listed as 123.4 ± 8.3 *↑ rel. units.

In the case of `C=C1C2=C(C(=O)N1OC)[C@@H](N(CC)CCO)[C@@](C)(O)[C@H](CCCCC)O2` [Compound 9, (2S,3R,4R)-4-[ethyl(2-hydroxyethyl)amino]-3-hydroxy-6-methoxy-3-methyl-7-methylene-2-pentyl-3,4,6,7-tetrahydropyrano[2,3-c]pyrrol-5(2H)-one], the values for the half-maximal inhibitory concentration (IC50) in data set [1] and in data set [2] were 8.9 ± 0.2 µM and 2.8 ± 0.6 µM, respectively. Besides, the “resistance of K562/i-S9 cells relative to K562” value in data set [2] is given as “tendency towards increased sensitivity”. Further, the “STAT3 (pSer727) fluorescence intensity” value in data set [3] came out at 151.5 ± 28.7 rel. units.

Take `CCCCC[C@@H]1OC2=C(C(=O)N(OC)/C2=C\n2cnnc2)C(n2cnnc2)[C@@]1(C)O` (stereo partly shown) [Compound 10]: in data set [1] (adhesive tumor culture), the “IC50 value, A549” value is reported as “not active”. In addition, the “STAT3 (pSer727) fluorescence intensity” value in data set [3] is on record as 178.9 ± 13.4 *↑ rel. units.
